How the values were obtained:
A549, H1975 and HCC827 = assay: carboplatin-DNA monoadducts by AMS, average of resistant NSCLC lines; format: cell-based, human; conditions: three resistant cell lines
Experimental: (§1) NSCLC cell lines were cultured to >90% confluence, dosed with [^14C]carboplatin, and subjected to DNA isolation and AMS analysis. 60 mm dishes were seeded at a density of 1×10^6 cells/dish and allowed to attach overnight in a 37° C. humidified atmosphere containing 5% CO2. At hour 0, cells were dosed with 1 μM (relevant microdose concentration) or 100 μM carboplatin (therapeutically relevant concentration), each comprising 0.3 μM [^14C]carboplatin (50,000 dpm/ml). Cells were incubated with [^14C]carboplatin for 4 h before washing and cultured with carboplatin-free medium to mimic the in vivo carboplatin half-life (1.3-6 hours) in patients. DNA was harvested from the cell lines at hours 0, 2, 4, 8 and 24 hours after initial dosing. Ten micrograms of DNA per sample was converted to graphite and measured by AMS for ^14C/total C quantification. Triplicate sets of AMS experiments were performed for each cell line and time point. The 14C/total C ratio was converted to 14C atoms per DNA base-pair according to the algorithm described herein to provide values of carboplatin-DNA monoadducts per 10^8 nucleotides. The data was plotted as carboplatin-DNA monoadducts per 10^8 nucleotide (nt) vs time (FIGS. 8A and 8B). There was a time-dependent increase in the carboplatin-DNA monoadduct concentration during the first 4 hours of incubation with therapeutic or microdosing carboplatin (FIGS. 8A and 8B). […]

H23, H460, and H727 = assay: carboplatin-DNA monoadducts by AMS, average of sensitive NSCLC lines; format: cell-based, human; conditions: three most sensitive cell lines
Experimental: as §1

5637R = assay: MTT assay IC50, oxaliplatin-resistant bladder cancer sub-line; format: cell-based, human; conditions: 5637R, 72 hours
Experimental: Drug-DNA adduct formation and repair was measured by accelerator mass spectrometry.
To confirm that 5637 was the original ATCC cell line, and that 5637R originated from the parental 5637 cell line, both cultures were sent to the ATCC Cell Line Authentication Service for cell verification per the ATCC protocol. More specifically, fifteen short tandem repeat (STR) loci plus the gender determining locus, amelogenin, were amplified using the commercially available PowerPlex® 16HS Kit from Promega.
These two cell lines were also cultured with a range of concentrations of cisplatin, carboplatin, gemcitabine, doxorubicin, methotrexate and vinblastine for 72 hours to determine IC50 for these other drugs (FIG. 16C). These drugs were chosen because of their frequent use in the treatment of bladder cancer.

[1] = carboplatin plasma pharmacokinetics in mice; format: in vivo, Balb/c mice
Experimental: Balb/c mice received a bolus [^14C]carboplatin tail vein injection at microdose (0.373 mg/kg; 50,000 dpm/gm) or therapeutic dose (37.3 mg/kg; 50,000 dpm/gm). Mice were sacrificed in triplicate at 15 min, 1 h, 2 h, 8 h and 24 h. Concentrations of carboplatin in plasma were measured by liquid scintillation counting at each time point.

A549 tumor xenograph = assay: tumor response to therapeutic carboplatin; format: in vivo, nude mice; conditions: resistant A549 xenograph; single IV 37.3 mg/kg; 14 days
Excerpt: (§2) Xenograft mouse tumors consisting of one carboplatin resistant and one sensitive tumor type were established for in vivo evaluation of carboplatin-DNA monoadduct formation and repair in tumor tissue and for in vivo evaluation of tumor response to therapeutic dosing with carboplatin. Tumor xenografts were established in 1-2 month old nude mice by injecting approximately one million cells into the left and right flanks, and allowed to develop tumors of less than 1 cm^3 over approximately 4 weeks prior to DNA adduct studies. Mice bearing resistant and sensitive tumors were exposed to either a microdose or therapeutic dose of carboplatin by tail vein injection. DNA isolated from tumor tissue was evaluated for carboplatin-DNA monoadduct frequency levels as a function of time. For tumor response, mice bearing resistant and sensitive tumors were therapeutically treated with a single IV injection of 37.3 mg/kg of carboplatin and then examined for tumor growth as assessed by measuring palpable tumors with a caliper and calculating tumor volume.
(§3) Mice xenografted with sensitive (H232A) and resistant (A549) lung cancer cell lines were infused with a therapeutic dose of carboplatin to assess tumor response. The tumors were measured daily over 14 days post infusion (FIG. 10C). Tumor size was normalized as the ratio of tumor diameter to the tumor diameter measured on day 0 (no change=1.0). […]

H23 2A tumor xenograph = assay: tumor response to therapeutic carboplatin; format: in vivo, nude mice; conditions: sensitive H23 2A xenograph; single IV 37.3 mg/kg; 14 days
Excerpt: as §2, §3

A549 tumor xenografts = assay: DNA repair: monoadducts remaining in excised xenograft tumor; format: in vivo, mice; conditions: tumor excised 4 h after microdose, 8 hours in carboplatin-free medium
Experimental: (§4) DNA repair rates in the xenograft tumor cells were also observed to correlate with carboplatin resistance. This is exemplified by the measurement of DNA repair in the A549 and H232A tumor xenografts (FIG. 10D). Four hours after a microdose was administered to three mice each with A549 and H232A tumor xenografts, the animals were sacrificed and tumors were excised. Tissue from each tumor was minced with a scalpel and washed with PBS. Half of the sample was frozen immediately (control) and half was incubated in cell culture medium (no carboplatin) for 8 hours prior to storage. DNA was extracted from the two sets of experiments and analyzed for carboplatin-DNA monoadducts. The resistant A549 cell line had 4±3% of the carboplatin-DNA monoadducts remaining compared to the control, whereas 56±8% of the monoadducts persisted for the drug sensitive H23 cells.

H232A tumor xenografts = assay: as above; format: in vivo, mice; conditions: H23; tumor excised 4 h after microdose, 8 hours in carboplatin-free medium
Experimental: as §4

[2] = safety of radiolabeled microdose in patients; conditions: IV microdose, 1% of the therapeutic dose
Experimental: Microdoses of the [^14C]Carboplatin were administered to human cancer patients as a diagnostic reagent, followed by full dose platinum-based chemotherapy and evaluation of response. Within four weeks of the [^14C]carboplatin microdose, these patients received standard of care chemotherapy for their disease, which included either carboplatin or cisplatin. The patient population consisted of non-small cell lung cancer patients (NSCLC), stage IV with measurable lesions, and bladder transitional cell carcinoma (TCC) patients, stage II disease and above for neoadjuvant treatment, or stage III and IV metastatic disease with measurable lesions for palliative chemotherapy. Patients were identified for this study as having measurable lesions using the Response Evaluation Criteria in Solid Tumor (RECIST), an Eastern Cooperative Oncology Group performance status of <2, and adequate bone marrow and vital organ function. PBMC and tumor tissue were collected from the patients for analysis of carboplatin-DNA monoadduct frequencies. Toxicity of the [^14C]carboplatin diagnostic reagent administered as a microdose was assessed using Common Terminology Criteria for Adverse Events (CTCAE). Toxicities of grade 3 and above were also collected for patient specific toxic response to full dose chemotherapy for correlation analysis to carboplatin-DNA monoadduct frequency. Patient response to chemotherapy was evaluated using the RECIST for correlation to carboplatin-DNA monoadduct frequency.
The dose of carboplatin in the diagnostic microdose was chosen to be sub-toxic and non-therapeutic, to minimize patient chemical and radiation exposure, and to result in AMS measurable carboplatin-DNA monoadducts. Nineteen patients have been administered at least one microdose of [^14C]carboplatin via IV infusion as a diagnostic reagent. Patient toxicity related to the microdose was monitored from the time of IV microdose until the patients received their first chemotherapy. […] The total radioactive dose given to a 75 kg patient after an IV microdose of [^14C]carboplatin is calculated to be 338 μCi. […]

N.N.O=C([O-])C1(C(=O)[O-])CCC1.[Pt+2] [carboplatin]
average area under curve (AUC) of carboplatin-DNA monoadducts (A549, H1975 and HCC827; microdosing): 43.36±9.55 hr-monoadducts per 10^8 nt | average area under curve (AUC) of carboplatin-DNA monoadducts (A549, H1975 and HCC827; therapeutic dosing): 3916.7±1280.0 hr-monoadducts per 10^8 nt | average area under curve (AUC) of carboplatin-DNA monoadducts (H23, H460, and H727; microdosing): 94.61±33.99 hr-monoadducts per 10^8 nt | average area under curve (AUC) of carboplatin-DNA monoadducts (H23, H460, and H727; therapeutic dosing): 9617.8±3172.7 hr-monoadducts per 10^8 nt | IC50 (5637R): 72.2 µM | Cmax ([1]; microdose 0.373 mg/kg): 1 µM | initial T1/2 ([1]; microdose 0.373 mg/kg bolus tail vein): 50 min | Cmax ([1]; therapeutic dose 37.3 mg/kg): 127 ± 30 µM | initial T1/2 ([1]; therapeutic dose 37.3 mg/kg bolus tail vein): 50 min | tumor response (growth after chemotherapy) (A549 tumor xenograph): continued to grow | tumor response (growth after chemotherapy) (H23 2A tumor xenograph): did not display any growth | carboplatin-DNA monoadducts remaining compared to the control (A549 tumor xenografts): 4±3% | carboplatin-DNA monoadducts remaining compared to the control (H232A tumor xenografts): 56±8% | clinical side effects [2]: None of the clinical side effects associated with standard therapeutic doses of carboplatin were observed | tolerability of radiolabeled microdose [2]: well tolerated
